Measurements as given in patent US20090155367A1, “Occlusion of Fallopian Tubes” (priority 2005, published 2009).

What was measured:
[1] = system: beef muscle tissue (fillet mignon); assay: Tissue necrosis with AgNO3 bearing beads placed on beef muscle tissue; set-up: key: +: slight visible pitting of the tissue surface; ++: moderate pitting of tissue surface with slight blackening of the tissue; +++: significant pitting with moderate blackening of the tissue; ++++: severe pitting with complete blackening of the tissue; +++++: severe pitting with complete blackening of the tissue, spreading beyond the point of contact; −−−: no observed necrosis; details: tissue under bead on beef muscle surface
Description: The degree of necrosis was rated as follows: slight visible pitting of the tissue surface (+); moderate pitting of tissue surface with slight blackening of the tissue (++); significant pitting with moderate blackening of the tissue (+++); severe pitting with complete blackening of the tissue (++++); severe pitting with complete blackening of the tissue, spreading beyond the point of contact (+++++); and no observed necrosis (−−−)

Fallopian tubes = details: even when massive tubal necrosis was achieved; cited from earlier work

## O=[N+]([O-])[O-].[Ag+] [AgNO3 Crystal, silver nitrate]
[1]; Time 5 minutes
  Tissue Necrosis (degree of necrosis): +++
[1]; Time 10 minutes
  Tissue Necrosis (degree of necrosis): ++++
[1]; Time 15 minutes
  Tissue Necrosis (degree of necrosis): +++++
[1]; Time 20 minutes
  Tissue Necrosis (degree of necrosis): +++++
Fallopian tubes
  Fallopian tube closure after application: a significant proportion of Fallopian tubes remained open
